# Test results: publication PMC8425032, “Functional characterization of a highly specific L-arabinose transporter from Trichoderma reesei” (Microbial Cell Factories, 2021)
# Tests used:
# Type in all cases: cell-based
# P. chrysogenum AraT = target: T1, P. chrysogenum AraT (Penicillium rubens, UniProt B6HE12); test: […]-L-arabinose uptake, yeast cells; conditions: 0.167 mM L-arabinose at pH 6.5 and 5 mM at pH 4.5; 28 °C; labelled compound
# T1 construct: gene Pc20g01790; no tag mentioned
# T1 sequence (B6HE12 1-511): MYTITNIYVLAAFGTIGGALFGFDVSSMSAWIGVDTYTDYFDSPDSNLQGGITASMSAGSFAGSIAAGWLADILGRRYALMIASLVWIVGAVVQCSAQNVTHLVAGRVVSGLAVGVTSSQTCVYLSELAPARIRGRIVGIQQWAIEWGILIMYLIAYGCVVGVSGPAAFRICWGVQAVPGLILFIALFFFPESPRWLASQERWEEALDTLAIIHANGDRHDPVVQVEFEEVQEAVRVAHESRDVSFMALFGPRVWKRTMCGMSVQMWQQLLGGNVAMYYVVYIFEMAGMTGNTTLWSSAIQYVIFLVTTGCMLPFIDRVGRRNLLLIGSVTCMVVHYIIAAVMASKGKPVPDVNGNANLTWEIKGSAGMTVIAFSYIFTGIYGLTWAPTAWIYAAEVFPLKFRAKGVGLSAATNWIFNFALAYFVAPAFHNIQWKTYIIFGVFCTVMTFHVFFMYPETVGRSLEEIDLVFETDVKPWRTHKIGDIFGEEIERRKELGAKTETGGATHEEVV
# A. thaliana STP7 = target: T2, A. thaliana STP7 (Arabidopsis thaliana, UniProt O04249); test: […]-L-arabinose uptake, yeast cells; conditions: 5 mM L-arabinose, sodium citrate pH 4.5, 28 °C; labelled compound
# T2 construct: no tag mentioned
# T2 sequence (O04249 1-513): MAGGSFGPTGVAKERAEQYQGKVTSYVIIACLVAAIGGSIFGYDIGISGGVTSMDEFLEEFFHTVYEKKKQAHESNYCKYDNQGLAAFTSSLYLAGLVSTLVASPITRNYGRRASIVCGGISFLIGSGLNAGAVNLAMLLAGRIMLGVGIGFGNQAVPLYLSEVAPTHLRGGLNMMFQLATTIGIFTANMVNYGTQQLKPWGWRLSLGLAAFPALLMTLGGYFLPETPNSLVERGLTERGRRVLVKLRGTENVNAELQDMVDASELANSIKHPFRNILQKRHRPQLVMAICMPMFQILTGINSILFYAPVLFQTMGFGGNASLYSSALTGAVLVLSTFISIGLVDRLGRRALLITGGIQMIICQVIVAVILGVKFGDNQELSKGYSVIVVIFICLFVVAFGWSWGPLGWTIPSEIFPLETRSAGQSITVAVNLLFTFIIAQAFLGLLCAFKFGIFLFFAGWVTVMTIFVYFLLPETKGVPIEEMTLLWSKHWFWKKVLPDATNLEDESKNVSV
# Trire2_104072 [1] = target: T3, Trire2_104072 (Trichoderma reesei, UniProt Q1EG32, H388P, form not given); test: two-electrode voltage clamp, sugar-induced current, Xenopus oocytes; conditions: pH 5.5, -50 mV, sodium-free ND-96 buffer; proton symport
# T3 construct: gene xlt1; full-length RUT-C30 version, yeast codon-optimised synthetic gene; no tag mentioned; P388H version XLT1 from plasmid B1687
# T3 sequence (Q1EG32 entry or part of it H388P, form open): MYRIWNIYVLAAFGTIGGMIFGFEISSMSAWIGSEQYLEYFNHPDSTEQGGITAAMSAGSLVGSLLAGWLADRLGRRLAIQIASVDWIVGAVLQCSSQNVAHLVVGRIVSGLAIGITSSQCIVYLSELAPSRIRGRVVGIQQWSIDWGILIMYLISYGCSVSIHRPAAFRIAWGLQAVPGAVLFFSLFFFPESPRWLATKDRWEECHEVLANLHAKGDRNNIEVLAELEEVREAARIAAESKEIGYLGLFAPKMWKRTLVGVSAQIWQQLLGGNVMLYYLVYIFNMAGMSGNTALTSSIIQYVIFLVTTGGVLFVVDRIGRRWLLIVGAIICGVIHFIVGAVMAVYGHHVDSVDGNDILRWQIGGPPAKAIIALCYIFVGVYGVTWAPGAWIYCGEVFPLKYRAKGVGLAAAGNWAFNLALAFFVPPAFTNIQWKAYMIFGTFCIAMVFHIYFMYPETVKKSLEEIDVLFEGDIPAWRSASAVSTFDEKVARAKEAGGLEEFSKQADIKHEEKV
# Trire2_104072 [2] = target: T3, Trire2_104072; test: inhibition of […]-L-arabinose uptake, yeast cells; conditions: 833 µM; fivefold excess over 0.167 mM labelled L-arabinose, pH 6.5, 28 °C
# Trire2_104072 [3] = target: T4, Trire2_104072 (Trichoderma reesei, UniProt Q1EG32); test: inhibition of […]-L-arabinose uptake, yeast cells; conditions: fivefold excess over 0.167 mM labelled L-arabinose, pH 6.5, 28 °C
# T4 construct: gene xlt1; full-length RUT-C30 version, yeast codon-optimised synthetic gene; no tag mentioned; P388H version XLT1 from plasmid B1687
# T4 sequence (Q1EG32 entry or part of it): as the sequence (Q1EG32 entry or part of it H388P, form open) above, with P388H counted along it
structure (smiles),measurement,setting,value
OC1OC[C@H](O)[C@H](O)[C@H]1O (stereo partly drawn) [L-arabinose],"14C-L-arabinose uptake, yeast cells",P. chrysogenum AraT,XLT1 or P. chrysogenum AraT had significantly higher L-arabinose uptake rates than the control strain
same,"14C-L-arabinose uptake, yeast cells",A. thaliana STP7,The strain expressing A. thaliana STP7 had also significantly higher uptake
same,Km,Trire2_104072 [1],0.207 ± 0.079 mM
OC[C@H]1OC(O)[C@H](O)[C@@H](O)[C@@H]1O (stereo partly drawn) [D-glucose],"Inhibition of L-arabinose uptake by competing sugar (glucose in 22.1, xylose in 22.2)",Trire2_104072 [2],0±8.2%
same,% inhibition at 0.833 mM,Trire2_104072 [3],4.5±17.6%
OC1OC[C@@H](O)[C@H](O)[C@H]1O (stereo partly drawn) [D-xylose],"Inhibition of L-arabinose uptake by competing sugar (glucose in 22.1, xylose in 22.2)",Trire2_104072 [2],10.9±6.3%
same,Km,Trire2_104072 [1],9.16 ± 3.35 mM
same,% inhibition at 0.833 mM,Trire2_104072 [3],13.4±7.9%
